ChEMBL document CHEMBL2169742, “Design, synthesis, and biological evaluation of novel transrepression-selective liver X receptor (LXR) ligands with 5,11-dihydro-5-methyl-11-methylene-6H-dibenz[b,e]azepin-6-one skeleton” (J Med Chem, 2012)
Active and inactive are the calls of the source. The rule behind the calls is not given here.

Target: T1, Bile acid receptor (Homo sapiens) (UniProt Q96RI1)
T1 sequence (whole entry): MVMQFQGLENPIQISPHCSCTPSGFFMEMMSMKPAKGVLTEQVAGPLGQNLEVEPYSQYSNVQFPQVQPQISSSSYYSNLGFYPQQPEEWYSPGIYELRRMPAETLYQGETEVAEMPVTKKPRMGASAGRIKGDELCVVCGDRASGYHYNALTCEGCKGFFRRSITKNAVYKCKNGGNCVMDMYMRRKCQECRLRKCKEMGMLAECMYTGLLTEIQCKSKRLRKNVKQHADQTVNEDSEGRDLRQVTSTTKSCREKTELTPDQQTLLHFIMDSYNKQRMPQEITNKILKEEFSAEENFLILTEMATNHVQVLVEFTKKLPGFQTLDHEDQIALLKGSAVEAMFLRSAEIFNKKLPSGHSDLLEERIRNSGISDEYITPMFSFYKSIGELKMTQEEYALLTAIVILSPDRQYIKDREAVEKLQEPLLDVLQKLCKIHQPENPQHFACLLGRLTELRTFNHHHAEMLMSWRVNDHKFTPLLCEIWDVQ
Experiment: Agonist activity at human Gal4-fused FXR assessed as luciferase activity at 0.03 to 10 uM by reporter gene assay
Format: functional

- Activity: inactive
Compound: C=C1c2ccccc2C(=O)N(C)c2ccc(CC)cc21
